From patent US8633203B2, “Use of pterocarpans as active anti-cellulite ingredients” (Symrise AG, priority 2009, dated 2014)

What was measured:
fat cells = assay: own investigations on differentiation of fat cells; assay type: cell-based; details: depending on the use concentration
[1] = test system: Primary human subcutaneous preadipocytes differentiated to adipocytes; assay: lipolysis assay, free glycerol in supernatant; assay type: cell-based; details: for IC50 inhibition of the lipolysis: mean values of at least 2 independent tests; for Activity with regard to lipolysis (neither inhibited nor stimulated): max. use concentration 25 ppm, about 20 hours incubation
Procedure: Primary human subcutaneous preadipocytes (Lonza) are seeded in a 96-well microtiter plate at a concentration of 1×10^4 cells/well. Until confluence is reached, cultivation takes place at 37° C. and 5% CO2 in DMEM, enriched with 10% foetal calf serum. To induce the differentiation of preadipocytes to adipocytes there follows the addition DMEM enriched with 10% foetal calf serum, with added 10 μg/ml insulin, 1 μM dexamethasone and 1 mM IBMX (3-isobutyl-1-methylxanthine). A cultivation for 14 to 20 days follows. During this time, the medium can optionally be replaced by DMEM, enriched with 10% foetal calf serum.
Various concentrations of the test substances are applied to the cells in DMEM, with bovine serum albumen added. After about 20 hours of incubation, the quantification takes place of free glycerol in the supernatant of the cells, which is discharged therefrom after hydrolysis of triglycerides in the cells and is a measure of the lipolysis of the cells. The quantification of the free glycerol is carried out based on an enzymatic method with a free glycerol reagent.
The stimulation of the lipolysis in the presence of test substances is calculated according to the following equation: […]
The […] is calculated from the lipolysis stimulation [%] in a series of dilutions of tested samples. This is the concentration at which the lipolysis is 50% stimulated.
The inhibition of the lipolysis in the presence of test substances is calculated according to the following equation: […]
The IC50 is calculated from the lipolysis inhibition [%] in a series of dilutions of tested samples. This is the concentration at which the lipolysis is 50% inhibited.

lipoprotein lipase (LPL) = molecular target: T1, lipoprotein lipase (LPL) (Mus musculus, UniProt P11152); assay: inhibition of lipoprotein lipase from differentiated 3T3-L1 cells, MUF oleate hydrolysis; assay type: biochemical; details: LPL from 3T3-L1 cells; MUF oleate substrate; mean values of at least 2 independent tests
T1 construct: endogenous in cells; host or cells: differentiated 3T3-L1 cells (mouse); heparin-released supernatant
T1 sequence (P11152 28-474): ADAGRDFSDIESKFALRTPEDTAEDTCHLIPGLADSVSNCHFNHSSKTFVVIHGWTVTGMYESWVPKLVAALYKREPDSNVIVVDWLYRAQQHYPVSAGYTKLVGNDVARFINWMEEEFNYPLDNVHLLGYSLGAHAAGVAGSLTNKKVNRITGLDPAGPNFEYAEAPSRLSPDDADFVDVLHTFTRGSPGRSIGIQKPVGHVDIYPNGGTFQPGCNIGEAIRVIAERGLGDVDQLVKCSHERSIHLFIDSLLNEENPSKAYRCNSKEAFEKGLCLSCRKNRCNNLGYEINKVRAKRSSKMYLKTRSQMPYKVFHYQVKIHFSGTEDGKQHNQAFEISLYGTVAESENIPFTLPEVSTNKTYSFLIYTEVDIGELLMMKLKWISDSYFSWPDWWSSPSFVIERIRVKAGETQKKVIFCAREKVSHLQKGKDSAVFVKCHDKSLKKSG
Procedure: The results of the inhibition of the PL are used as a preliminary test and are confirmed on LPL. To obtain LPL, 3T3-L1 cells (mouse embryonal fibroblast adipocyte cell line) are seeded in a 6-well plate with collagen I-coating in a concentration of 3×10^5 cells/well. The cultivation and differentiation of the cells takes place analogously to the details in Example 2 (adipogenesis assay). During the differentiation LPL, is increasingly expressed. The LPL is present in a membrane-bound state and is released by one hour incubation with heparin solution at 2-8° C. in the supernatant of the cells.
The LPL thus obtained, in the presence of test substances in different use concentrations, has methylumbelliferyl oleate (MUF oleate) added as the substrate. Fluorescent methylumbelliferyl (MUF) is produced by hydrolysis of the MUF oleate by LPL and is quantified. The inhibition of the hydrolysis of the MUF oleate is a measure of the inhibition of the activity of the LPL and therefore the lipogenesis.
The IC50 is calculated from the inhibition of the LPL [%] in a series of dilutions of tested samples. This is the concentration at which the activity of the LPL and therefore the lipogenesis is 50% inhibited.

3T3-L1-cells = assay: adipogenesis inhibition assay (Nile Red lipid staining); assay type: cell-based, mouse; details: mean values of at least 2 independent tests
Procedure: 3T3-L1-cells (mouse embryonal fibroblast-like adipocyte cell line) are seeded in a 48-well plate with collagen I-coating in a concentration of 3×10^4 cells/well. After 72 h cultivation at 37° C. and 5% CO2 in DMEM (Dulbecco's Modified Eagle Medium), enriched with 10% calf serum, various concentrations of the test substances in DMEM, enriched with 10% foetal calf serum and to which are added 1 μg/ml insulin, 0.25 μM dexamethasone and 0.5 mM IBMX (3-isobutyl-1-methylxanthine), are added and incubated for a further 48 h. A media change takes place, in that DMEM, enriched with 10% foetal calf serum and with 1 μg/ml insulin added, are applied. After renewed cultivation for 48 h, a further media change takes place, in which DMEM, enriched with 10% foetal calf serum, is applied.
After a further incubation for 72 h, the intracellularly stored lipids are quantified as a measure for the differentiation of the cells by measuring the fluorescence after dyeing of the lipids with the fluorescent dye Nile Red.
The inhibition of the adipogenesis in the presence of the test substances is calculated according to the following equation: […]
The IC50 is calculated from the adipogenesis inhibition (%) in a series of dilutions of tested samples. This is the concentration at which the adipogenesis is 50% inhibited.

pancreatic lipase (PL) = molecular target: T2, pancreatic lipase (PL) (Sus scrofa, UniProt P00591); assay: inhibition of pancreatic lipase, MUF oleate hydrolysis; assay type: biochemical; details: MUF oleate substrate; mean values of at least 2 independent tests
T2 construct: purchased Sigma-Aldrich
T2 sequence (P00591 1-450): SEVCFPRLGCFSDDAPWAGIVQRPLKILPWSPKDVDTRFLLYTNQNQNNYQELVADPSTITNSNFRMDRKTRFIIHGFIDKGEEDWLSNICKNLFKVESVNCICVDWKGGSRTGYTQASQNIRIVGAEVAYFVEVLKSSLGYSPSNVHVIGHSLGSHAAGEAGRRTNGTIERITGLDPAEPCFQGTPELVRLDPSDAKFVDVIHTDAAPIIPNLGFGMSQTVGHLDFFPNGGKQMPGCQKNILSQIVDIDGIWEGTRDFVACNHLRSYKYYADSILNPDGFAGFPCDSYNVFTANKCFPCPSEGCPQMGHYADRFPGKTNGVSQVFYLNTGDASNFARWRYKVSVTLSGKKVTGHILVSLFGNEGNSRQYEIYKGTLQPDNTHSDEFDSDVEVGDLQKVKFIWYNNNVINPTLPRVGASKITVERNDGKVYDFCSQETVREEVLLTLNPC
Excerpt: Lipogenesis is taken to mean the storing of triglycerides in adipocytes. The inhibition of this storage can take place by means of the inhibition of the activity of extracellular lipoprotein lipase (LPL) in that the hydrolysis of extracellular triglycerides and therefore the absorption of free fatty acids by adipocytes is reduced. As a preliminary test, the inhibition of pancreatic lipase (PL) is investigated.
PL (Sigma-Aldrich), in the presence of test substances in different use concentrations has methylumbelliferyl oleate (MUF oleate) added as a substrate. Fluorescent methylumelliferon (MUF), is produced by hydrolysis of the MUF oleate by PL and is quantified. The inhibition of the hydrolysis of the MUF oleate is a measure of the inhibition of activity of the PL.
The IC50 is calculated from the inhibition of the PL [%] in a series of dilutions of tested samples. This is the concentration, at which the activity of the PL is 50% inhibited.

[2] = phototoxic potential, photo-irritation factor according to OECD guideline 432; details: own investigations
Excerpt: The phototoxic potential is expressed as a photo-irritation factor (PIF). […] It applies here that with a PIF of less than 2, no phototoxic potential exists while a phototoxic potential exists at a PIF of more than 5. With a PIF of between 2 and 5, there is possibly a phototoxic potential.

Compound | IC50 inhibition of the LPL (lipoprotein lipase (LPL)) [ppm] | Activity with regard to lipolysis (neither inhibited nor stimulated) [1] | IC50 adipogenesis inhibition (3T3-L1-cells) [ppm] | IC50 inhibition of the PL (pancreatic lipase (PL)) [ppm] | also measured
O=c1c(-c2ccc(O)cc2)coc2cc(O)cc(O)c12 [genistein] |  |  |  |  | effect on differentiation of fat cells, in words (fat cells): inhibited or stimulated
COc1cc(O)c2c(=O)c(-c3ccc(O)c(O)c3)coc2c1 [Santal, reference compound] |  |  |  |  | IC50 inhibition of the lipolysis [1]: 1.92 ppm; effect on lipolysis (route iii), in words ([1]; own investigations): inhibition of lipolysis
COc1ccc2c(c1)OC[C@H]1c3ccccc3O[C@@H]21 [3-methoxypterocarpan] | 67.0 | No activity (25 ppm) | 50.9 | 350 | 
COc1ccc(-c2coc3cc(O)c(OC)cc3c2=O)cc1O [odoratin] |  |  |  |  | phototoxic potential, in words [2]: notable phototoxic potential
Oc1ccc2c(c1)OC[C@H]1c3cc4c(cc3O[C@@H]21)OCO4 [Maackiain] | 104.2 | No activity (25 ppm) | 25.5 | 147 | 
cladastrin |  |  |  |  | phototoxic potential, in words [2]: notable phototoxic potential
COc1ccc(-c2coc3cc(O)ccc3c2=O)cc1 [Formononetin, reference compound] |  |  |  |  | IC50 inhibition of the lipolysis [1]: 53.7 ppm
COc1ccc2c(c1)OC1c3ccc(O)cc3OCC21 (stereo not drawn) [Medicarpin] | 788 | No activity (25 ppm) | 54.0 | 425 | 
